Measured values from PubChem BioAssay AID1963833 (Molecular Pharmacology Branch, DTP, NCI, 2024).

System: 883617-216-R-J1-PDC complex spheroid viability
Assay: Anticancer human tumor 883617-216-R-J1-PDC patient-derived bladder carcinoma cell line growth inhibition [POLQ]
Settings: for IC50: curve of first compound; for viability, T/C: stronger effect = lower value
Description: Multicellular complex tumor spheroid response to Polymerase (POL) inhibitors (novobiocin, ART-558, RP6685) in combination with a variety of drugs and investigational agents in selected tumor cell lines
The POL inhibitors (novobiocin, ART-558, and RP6685) were evaluated both individually and in combination with standard of care and investigational anticancer small molecules within a complex spheroid model of solid tumors. . Complex spheroids include a stromal component modeled by human endothelial cells (HUVEC) and fibroblasts modeled by human mesenchymal stem cells (MSCs). The concentration ranges selected for each drug and investigational agent were based upon clinically achievable concentrations if the clinical Cmax of the agent was known.
Compounds. The drugs and investigational agents: novobiocin (NSC847541), ART-558 (NSC835418), RP-6685 (NSC848927), peposertib (NSC802822), ceralasertib (NSC780249), elimusertib (NSC800525), camonsertib (NSC841442), AZD-1390 (NSC803789), olaparib (NSC753686), talazoparib (NSC767125), rucaparib (NSC756644), sotorasib (NSC818433), MRTX-1133 (NSC836407), SN-38 (NSC673596), topotecan (NSC609699), epotoside (NSC141540), doxorubicin (NSC123127), gemcitabine (NSC613327), 5-fluorouracil (NSC19893), paclitaxel (NSC125973), vemurafenib (NSC761431), MSA-2 (NSC828583), SN-011 (NSC837082), adavosertib (NSC754352), prexasertib (NSC758257), carboplatin (NSC241240) and oxaliplatin (NSC266046), were obtained from the National Cancer Institute (NCI) Developmental Therapeutics Program Chemical Repository (21). The FDA-approved anticancer drug set is available from the Developmental Therapeutics Program at https://dtp.cancer.gov/organization/dscb/obtaining/. […] The stock solutions were prepared in dimethyl sulfoxide (DMSO, Sigma-Aldrich, St. Louis, MO, cat. D2650), except for the platinum compounds which were prepared in saline (Quality Biological, Gaithersburg, MD, cat. 114-055-101), at 800-fold the tested concentration and stored at -70 degrees C prior to their use. All drugs and investigational agents were tested over a range starting from a high concentration at or near the clinical Cmax and decreasing in half-log increments. If the clinical Cmax for an agent had not been determined, the highest concentration tested was 10 microM, except for SN-38, which was tested at a high concentration of 1 microM.
Cell Culture. All cells were maintained in an incubator at 37 degrees C and 5% CO2 with 95% humidity. The PDC lines were cultured according to standard operating procedures established by the NCI PDMR (https://pdmr.cancer.gov). Table 3 of the manuscript, lists the cell lines along with the number of the three cell types plated to form the mct-spheroids and media for tumor cell growth. After thawing, all PDC lines, except 997537-175-T-J1-PDC and 415267-285-R-J2-PDC, were cultured in Matrigel-coated flasks prepared with a working solution of 1X Ham's F-12 nutrient mix, without supplementation (Thermo Fisher Scientific, cat. 11765054), 100 U/mL penicillin-streptomycin (Thermo Fisher Scientific, cat. 15140122), and 2.5% Matrigel (Corning Inc., Corning, NY, cat. 354248) for the first three passages. The two PDC lines 997537-175-T-J1-PDC and 415267-285-R-J2-PDC were cultured on uncoated flasks. The 857933-349-R-J2-PDC line was cultured in 6C/Colon 1B media containing advanced DMEM/F-12 (Thermo Fisher Scientific, cat. 12634028), 10 mM HEPES (Thermo Fisher Scientific, cat. 15630080), 1X GlutaMAX supplement (Thermo Fisher Scientific, cat. 35050061), 0.1 mg/mL primocin (InvivoGen, San Diego, CA, cat. ant-pm-2), 10% defined fetal bovine serum, heat inactivated (HyClone Laboratories Inc., Logan, UT, cat. SH30070.03HI), 50% L-WRN conditioned media (ATCC, cat. CRL-3276), 1.25 mM N-Acetyl-L-cysteine (Sigma-Aldrich, cat. A9165), 10 mM nicotinamide (Sigma-Aldrich, cat. N0636), 1X B-27 supplement (Thermo Fisher Scientific, cat. 17504044), 1X N-2 supplement (Thermo Fisher Scientific, cat. […]

[1] = second compound 0.0316 µM, first compound 0.0316 µM
[2] = second compound 0.0316 µM, first compound 0.1 µM
[3] = second compound 0.0316 µM, first compound 0.316 µM
[4] = second compound 0.0316 µM, first compound 1 µM
[5] = second compound 0.0316 µM, first compound 3.16 µM
[6] = second compound 0.0316 µM, first compound 10 µM
[7] = second compound 0.1 µM, first compound 0.0316 µM
[8] = second compound 0.1 µM, first compound 0.1 µM
[9] = second compound 0.1 µM, first compound 0.316 µM
[10] = second compound 0.1 µM, first compound 1 µM
[11] = second compound 0.1 µM, first compound 3.16 µM
[12] = second compound 0.1 µM, first compound 10 µM
[13] = second compound 0.316 µM, first compound 0.0316 µM
[14] = second compound 0.316 µM, first compound 0.1 µM
[15] = second compound 0.316 µM, first compound 0.316 µM
[16] = second compound 0.316 µM, first compound 1 µM
[17] = second compound 0.316 µM, first compound 3.16 µM
[18] = second compound 0.316 µM, first compound 10 µM
[19] = second compound 1 µM, first compound 0.0316 µM
[20] = second compound 1 µM, first compound 0.1 µM
[21] = second compound 1 µM, first compound 0.316 µM
[22] = second compound 1 µM, first compound 1 µM
[23] = second compound 1 µM, first compound 3.16 µM
[24] = second compound 1 µM, first compound 10 µM
[25] = second compound 3.16 µM, first compound 0.0316 µM
[26] = second compound 3.16 µM, first compound 0.1 µM
[27] = second compound 3.16 µM, first compound 0.316 µM
[28] = second compound 3.16 µM, first compound 1 µM
[29] = second compound 3.16 µM, first compound 3.16 µM
[30] = second compound 3.16 µM, first compound 10 µM
[31] = second compound 10 µM, first compound 0.0316 µM
[32] = second compound 10 µM, first compound 0.1 µM
[33] = second compound 10 µM, first compound 0.316 µM
[34] = second compound 10 µM, first compound 1 µM
[35] = second compound 10 µM, first compound 3.16 µM
[36] = second compound 10 µM, first compound 10 µM
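Note: spheroids exposed to compounds for seven days before readout.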
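Throughout, for viability, T/C: 100% = DMSO vehicle control viability.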

With `CC1COCCN1c1cc(C2(O)CC3CCC(C2)O3)c2cnn(-c3ccn[nH]3)c2n1` (centres undefined) + COC1C(OC(N)=O)C(O)C(Oc2ccc3c(O)c(NC(=O)c4ccc(O)c(CC=C(C)C)c4)c(=O)oc3c2C)OC1(C)C the IC50 (second compound 0.0316 µM) was 102 nM, the IC50 (second compound 0.1 µM) was 170 nM and the IC50 (second compound 0.316 µM) was 135 nM. It also gave an IC50 (second compound 1 µM) of 90.6 nM, an IC50 (second compound 3.16 µM) of 135 nM and an IC50 (second compound 10 µM) of 107 nM. The viability, T/C [1] was 72.8%, the viability, T/C [2] was 49.2% and the viability, T/C [3] was 35.2%. The viability, T/C [4] was 34.4%, the viability, T/C [5] was 24.9% and the viability, T/C [6] was 21.8%. It also gave a viability, T/C [7] of 66.8%, a viability, T/C [8] of 56.8% and a viability, T/C [9] of 42.3%. For the same compound, the viability, T/C [10] was 27.6%, the viability, T/C [11] was 25% and the viability, T/C [12] was 21.8%. The viability, T/C [13] was 68.4%, the viability, T/C [14] was 53.1% and the viability, T/C [15] was 40.9%. It also gave a viability, T/C [16] of 27.7%, a viability, T/C [17] of 25.6% and a viability, T/C [18] of 21.7%. For the same compound, the viability, T/C [19] was 73.4%, the viability, T/C [20] was 45.2% and the viability, T/C [21] was 37.1%. For the same compound, the viability, T/C [22] was 30.7%, the viability, T/C [23] was 25.9% and the viability, T/C [24] was 22.3%. It also gave a viability, T/C [25] of 68.7%, a viability, T/C [26] of 52.4% and a viability, T/C [27] of 40.9%. It also gave a viability, T/C [28] of 32.4%, a viability, T/C [29] of 27.8% and a viability, T/C [30] of 21.3%. For the same compound, the viability, T/C [31] was 58.5%, the viability, T/C [32] was 52.5% and the viability, T/C [33] was 42.9%. The viability, T/C [34] was 31.2%, the viability, T/C [35] was 29.1% and the viability, T/C [36] was 23%.

`CC1COCCN1c1cc(C2(S(C)(=N)=O)CC2)nc(-c2ccnc3[nH]ccc23)n1` (centres undefined) + COC1C(OC(N)=O)C(O)C(Oc2ccc3c(O)c(NC(=O)c4ccc(O)c(CC=C(C)C)c4)c(=O)oc3c2C)OC1(C)C showed an IC50 (second compound 0.0316 µM) of 2630 nM, an IC50 (second compound 0.1 µM) of 2110 nM and an IC50 (second compound 0.316 µM) of 2530 nM. For the same compound, the IC50 (second compound 1 µM) was 3630 nM, the IC50 (second compound 3.16 µM) was 1830 nM and the IC50 (second compound 10 µM) was 2950 nM. The viability, T/C [1] was 89%, the viability, T/C [2] was 101% and the viability, T/C [3] was 84.5%. For the same compound, the viability, T/C [4] was 83.5%, the viability, T/C [5] was 43.5% and the viability, T/C [6] was 31.2%. The viability, T/C [7] was 91.1%, the viability, T/C [8] was 91.5% and the viability, T/C [9] was 87.3%. The viability, T/C [10] was 69.1%, the viability, T/C [11] was 39.1% and the viability, T/C [12] was 37.1%. The viability, T/C [13] was 99.4%, the viability, T/C [14] was 89.6% and the viability, T/C [15] was 82.7%. The viability, T/C [16] was 67.8%, the viability, T/C [17] was 42.7% and the viability, T/C [18] was 38.7%. The viability, T/C [19] was 102%, the viability, T/C [20] was 84.8% and the viability, T/C [21] was 91.2%. The viability, T/C [22] was 70.8%, the viability, T/C [23] was 51.9% and the viability, T/C [24] was 31.3%. For the same compound, the viability, T/C [25] was 88.3%, the viability, T/C [26] was 97.3% and the viability, T/C [27] was 97.1%. For the same compound, the viability, T/C [28] was 61.8%, the viability, T/C [29] was 45.7% and the viability, T/C [30] was 32.6%. It also gave a viability, T/C [31] of 85.1%, a viability, T/C [32] of 82.4% and a viability, T/C [33] of 89.9%. The viability, T/C [34] was 65%, the viability, T/C [35] was 52.5% and the viability, T/C [36] was 40.5%.
